5 compounds from paper PMC8147781, “Discovery of Pyrrolidine-2,3-diones as Novel Inhibitors of P. aeruginosa PBP3” (Antibiotics, 2021) can be followed below.

Values joined by “and” are separate entries in the source; they are usually repeats but may differ in a detail not shown here. Equal values may be shown once.

This assay deals with T1, PaPBP3 coated on a CM5 chip (Pseudomonas aeruginosa, UniProt G3XD46).
T1 construct: P. aeruginosa PBP3 (amino acids 40 to 563); His-tag; made in house; host or cells: E. coli BL21 (DE3) Rosetta, plasmid pET41_PBP-3
T1 sequence (G3XD46 40-563): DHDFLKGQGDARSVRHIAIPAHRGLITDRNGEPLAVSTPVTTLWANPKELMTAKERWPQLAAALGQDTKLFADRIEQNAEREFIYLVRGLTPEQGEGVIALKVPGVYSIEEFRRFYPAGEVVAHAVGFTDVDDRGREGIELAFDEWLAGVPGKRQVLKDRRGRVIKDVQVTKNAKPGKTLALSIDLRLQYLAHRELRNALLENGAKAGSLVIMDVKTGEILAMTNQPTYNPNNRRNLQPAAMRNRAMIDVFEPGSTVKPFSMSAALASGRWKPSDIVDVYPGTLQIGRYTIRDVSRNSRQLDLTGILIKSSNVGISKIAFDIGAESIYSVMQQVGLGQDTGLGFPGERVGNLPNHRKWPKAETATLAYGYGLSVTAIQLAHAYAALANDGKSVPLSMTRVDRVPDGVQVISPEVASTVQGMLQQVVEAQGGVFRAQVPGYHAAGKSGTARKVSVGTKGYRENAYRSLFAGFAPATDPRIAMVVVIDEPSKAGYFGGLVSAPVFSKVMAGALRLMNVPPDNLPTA
In words: Surface plasmon resonance (SPR), steady-state analysis. It is filed as binding. As to conditions: 25 °C. As to the method:
Next, we confirmed the binding of the best inhibitors (analogues 34, 35, 40, 38 and 37) by surface plasmon resonance (SPR), using ^PaPBP3 coated on a CM5 chip as the ligand. The sensorgrams (Figure A1C and Figure A2C) indicated fast association and dissociation with all compounds tested. Dissociation constants (Kd) were determined via steady-state analysis using the maximum resonance signal obtained with a range of analyte concentrations.
SPR experiments were performed at 25 °C by using a Biacore T200 instrument from Cytiva (Marlborough, MA, USA). Purified ^PaPBP3 was coated on a CM5 chip, that was activated with EDC/NHS (1-ethyl-3-(3-dimethylaminopropyl) carbodiimide/N-hydroxysuccinimide) beforehand and blocked with ethanolamine after protein attachment. We achieved a protein amount of 11.820 RU. For every analyte, two concentration series between 3.25 µM and 200 µM were prepared in the running buffer (13 mM NaCl, 257 µM KCl, 171 µM KH2PO4, 950 µM Na2HPO4, 0.05% Tween-20 and 5% DMSO, pH 7.4) in a 96 well plate. Prior to the injection, the baseline was determined using running buffer for 300 s. Then, the analytes were then associated for 100 s and dissociated for 300 s with a flow rate of 30 µL/min. A 30 s washing step with 50% DMSO was used after every injection to regenerate the chip. In the final step, ten different DMSO concentrations ranging from 4.0% to 5.8% were used as the internal solvent correction. Steady state analysis was performed by using the internal Biacore software and figures were prepared with Prism v.8 using the points of one concentration series, respectively.
As to `O=C(C1=C(O)C(=O)N(Cc2cc3ccccc3[nH]2)C1c1ccc(Cl)cc1)c1ccc(Br)cc1` (stereo not drawn) [Compound 34, 4-(4-bromobenzoyl)-5-(4-chlorophenyl)-3-hydroxy-1-(1H-indol-2-ylmethyl)-5H-pyrrol-2-one], the Kd (commonly the equilibrium constant for the complex coming apart) is 6.4 µM and 6.44 µM. As for `O=C(C1=C(O)C(=O)N(Cc2cc3cc(Cl)ccc3[nH]2)C1c1ccc(Cl)cc1)c1ccc(Br)cc1` (stereo not drawn) [Compound 35], the Kd is 9.8 µM and 9.82 µM. On to `O=C(C1=C(O)C(=O)N(CCc2cc3ccccc3[nH]2)C1c1ccc(Cl)cc1)c1ccc(Br)cc1` (stereo not drawn) [Compound 37], for which the Kd is 454 µM and the “Kd (µM) SPR” value is “too high to conclude a specific binding”. Take `O=C(C1=C(O)C(=O)N(Cc2nc3ccccc3[nH]2)C1c1ccc(Cl)cc1)c1ccc(Br)cc1` (stereo not drawn) [Compound 38]: the affinity, expressed as Kd, was 62.7 µM. Compound `O=C(C1=C(O)C(=O)N(CCc2c[nH]c3ccccc23)C1c1ccc(Cl)cc1)c1ccc(Br)cc1` (stereo not drawn) [Compound 40] displayed a Kd of 22.9 µM.
